Where a name gives a salt, the structure may show the parent alone.
Tests used:
PC12 cells = assay: PC12 cell serum withdrawal model (MTS assay); type: cell-based; conditions: control cells = 100%
Description: Serum withdrawal is a cytotoxic environmental challenge that results in cell death in cultured cell lines as well as in primary cells of various tissue origins, including nerve cells. In particular, pheochromocytoma (PC) 12 cells have been widely employed as an in vitro neuronal cell model for a wide variety of neurodegenerative and cell death related disorders (Muriel, et al, Mitochondrial free calcium levels (Rhod-2 fluorescence) and ultrastructural alterations in neuronally differentiated PC12 cells during ceramide-dependent cell death, J. Comp. Neurol., 2000, 426(2), 297-315; Dermitzaki, et al, Opioids transiently prevent activation of apoptotic mechanisms following short periods of serum withdrawal, J. Neurochem., 2000, 74(3), 960-969; Carlile, et al, Reduced apoptosis after nerve growth factor and serum withdrawal: conversion of tetrameric glyceraldehyde-3-phosphate dehydrogenase to a dimer, Mol. Pharmacol., 2000, 57(1), 2-12).
PC12 cells were cultured in sterile media (RPMI 1640) supplemented with 10% heat-inactivated horse serum and 5% fetal bovine serum (FBS). The culture medium also contained Penicillin-Streptomycin-Neomycin antibiotic (50µg, 50µg, 100µg, respectively). Medium was exchanged every other day and the cells were passed in log phase near confluence.
The control cells were cultured in regular media without any treatment. An enantiomer of Formula 7 or Formula 8 (10µM) was mixed well in the medium and then applied to the cells. For the 2 day assay, an enantiomer of Formula 7 or Formula 8 (10µM) was only applied to the cells once at the time of serum withdrawal. For the 7 day assay, an enantiomer of Formula 7 or Formula 8 (10. mu.M) was applied to the cells at the time of serum withdrawal and every 48 hr thereafter when cells were changed with fresh new serum-free medium. In the serum withdrawal group, the cells were cultured in serum-free medium with no additional enantiomer of Formula 7 or Formula 8. Cell survival was determined by the 3-(4,5-dimethylthiazol-2-yl)-5-(3-carboxy-methoxyphenyl)-2-(4-sulfophenyl)-2H-tetrazolium inner salt (MTS) assay at 2 or 7 days after serum withdrawal.
At the end of the experiment, cells were washed with fresh medium and incubated with MTS solution in a humidified 37° C. with 5% CO2 incubator for 1.5 hr. After the incubation period, the cells were immediately analyzed using a Softmax program (Molecular Devices). […] The assay is based on the cellular conversion of the tetrazolium salt, MTS, into a formazan that is soluble in tissue culture medium and measured directly at 490 nm in 96-well assay plates. The absorbance is directly proportional to the number of living cells in culture. The arbitrary absorbance reading in control cells is expressed as 100% survival rate.

[1] = system: transient cerebral ischemia (MCAO); assay: Transient cerebral ischemia middle cerebral artery occlusion (MCAO) rat model; type: in vivo; conditions: MK 801 3 mg/kg i.p.; N=12
Method: The enantiomer of Formula 7 was investigated in the transient cerebral ischemia middle cerebral artery occlusion (MCAO) rat model (as described in Nagasawa H. and Kogure K., Stroke, 1989, 20, 1037; and, Zea Longa E., Weinstein P. R., Carlson S, and Cummins R., Stroke, 1989, 20, 84) using male Wistar rats at 10 and 100 mg/kg (i.v.). MK 801 (Dizocilpine maleate; CAS Registry number 77086-22-7, a commercially available neuroprotectant compound) was used as a positive control (3 mg/kg, i.p.).
Rats (n=12) were randomly allocated to one of four experimental groups and were anesthetized. Blood flow from the internal carotid artery, anterior cerebral artery and posterior cerebral artery into the middle cerebral artery was blocked by this procedure. One hour after blockage, animals were treated over a 1 hour period with vehicle (administered i.v. over the one hour period), control (administered as a single i.p. dose at the start of the one hour period) and two doses of the enantiomer of Formula 7 (administered i.v. over the one hour period). Two hours after blockage, reperfusion was performed.
The animals were sacrificed and […] coronal sections of each brain were prepared. One in every forty sections (i.e. every […]) from the front to the occipital cortex was used to quantify the extent of the cerebral lesion. Slides were prepared using sections stained (according to the Nissl procedure) with cresyl violet and were examined under a light microscope.
Regional ischemic surface areas in the coronal sections of individual rats were determined according to the presence of cells with morphological changes. The areas of neuronal injury or infarction were measured and then added. The cortex and striatum volume were calculated for each animal (total ischemic surface area×0.8 mm (thickness)).
The mean volumes (.+−.S.E.M.) for each animal randomly assigned to the four experimental groups were compared using one-way ANOVA (one way ANOVA is a statistical method which compares 3 or more unmatched groups) followed by Dunnett's t-test (both methods incorporated in Statview 512+software, BarinPower, Calabasas, Calif., USA).

Structure (SMILES)	2 Day Survival Rate (PC12 cells; 10 µM applied once at serum withdrawal)	7 Day Survival Rate (PC12 cells; 10 µM at serum withdrawal and every 48 hr)	Mean Infarct Volume ± S.E.M., Cortex Volume [1]	Mean Infarct Volume ± S.E.M., Striatum [1]	Mean Infarct Volume ± S.E.M., Total [1]
NC(=O)OC[C@H](OC(N)=O)c1ccccc1Cl [Formula 8]	66.4 ± 5.4^1%	85.2 ± 0.6^2%	–	–	–
C[C@]12N[C@H](Cc3ccccc31)c1ccccc12 [MK 801, Dizocilpine maleate, reference compound]	–	–	95.8 ± 24.5^1 mm^3	56.1 ± 5.3^2 mm^3	151.9 ± 28.7^1 mm^3
